Laboratory results as given in patent US20150141381A1, “TETRACYCLINE COMPOUNDS HAVING TARGET THERAPEUTIC ACTIVITIES” (Paratek Pharmaceuticals, Inc., priority 2001, published 2015).

Legend:
S. aureus RN450 = assay: In Vitro Anti-Bacterial Activity Assay (MIC), gram positive; assay type: cell-based; settings: Staphylococcus aureus, RN450, 18 h, MIC class, Table 3; read-out: Antibiotic Activity Gram +
E. coli mL308 225 = assay: In Vitro Anti-Bacterial Activity Assay (MIC), gram negative; assay type: cell-based; settings: Escherichia coli, ML308225, 18 h, MIC class, Table 3; read-out: Antibiotic Activity Gram −

SMILES	MIC (S. aureus RN450) [µg/mL]	MIC (E. coli mL308 225) [µg/mL]
CCCN1CCC(Nc2ccc3c(c2O)C(=O)C2=C(O)[C@]4(O)C(=O)C(C(N)=O)=C(O)[C@@H](N(C)C)[C@@H]4[C@@H](O)[C@@H]2[C@H]3C)CC1 [KX]	< 4	< 4
CN1CCC(NCc2ccc(O)c3c2C[C@H]2C[C@H]4[C@H](N(C)C)C(O)=C(C(N)=O)C(=O)[C@@]4(O)C(O)=C2C3=O)CC1 [KY]	> 4	> 4
CN(C)c1cc(F)c(O)c2c1C[C@H]1C[C@H]3C(N(C)C)C(O)=C(C(N)=O)C(=O)[C@@]3(O)C(O)=C1C2=O (some centres unmarked) [KZ]	< 4	< 4
CN(C)Cc1ccc(-c2ccc(O)c3c2C[C@H]2C[C@H]4[C@@H](N(C)C)C(O)=C(C(N)=O)C(=O)[C@@]4(O)C(O)=C2C3=O)c2ccccc12 [K]	< 4	< 4
Cc1cc(CNCc2cc(N(C)C)c3c(c2O)C(=O)C2=C(O)[C@]4(O)C(=O)C(C(N)=O)=C(O)[C@@H](N(C)C)[C@@H]4C[C@@H]2C3)oc1C [LC]	< 4	< 4
CN(C)[C@@H]1C(O)=C(C(N)=O)C(=O)[C@@]2(O)C(O)=C3C(=O)c4c(O)ccc(CNC5CCNCC5)c4C[C@H]3C[C@@H]12 [LD]	> 4	> 4
CN(C)[C@@H]1C(O)=C(C(N)=O)C(=O)[C@@]2(O)C(O)=C3C(=O)c4c(ccc(NC5CCNCC5)c4O)C[C@H]3C[C@@H]12 [LE]	> 4	> 4
CN(C)[C@@H]1C(O)=C(C(N)=O)C(=O)[C@@]2(O)C(O)=C3C(=O)c4c(ccc(NC5CC(C)(C)NC(C)(C)C5)c4O)C[C@H]3C[C@@H]12 [LF]	< 4	> 4
CN(C)Cc1ccc(-c2cc(N(C)C)c3c(c2O)C(=O)C2=C(O)[C@]4(O)C(=O)C(C(N)=O)=C(O)[C@@H](N(C)C)[C@@H]4C[C@@H]2C3)o1 [LI]	< 4	> 4
CN(C)[C@@H]1C(O)=C(C(N)=O)C(=O)[C@@]2(O)C(O)=C3C(=O)c4c(O)ccc(-c5ccc(CNC6CCCCC6)o5)c4C[C@H]3C[C@@H]12 [LK]	< 4	< 4
CN(C)C1C(O)=C(C(N)=O)C(=O)[C@@]2(O)C(O)=C3C(=O)c4c(O)ccc(-c5ccc(CNCc6ccccc6)o5)c4C[C@H]3C[C@@H]12 (some centres unmarked) [LL]	< 4	< 4
CN(C)[C@H]1C(O)=C(C(N)=O)C(=O)[C@@]2(O)C(O)=C3C(=O)c4c(O)ccc(-c5ccc(CN6CCCC6)o5)c4C[C@H]3C[C@@H]12 [LM]	< 4	< 4
CN1CCN(Cc2ccc(-c3ccc(O)c4c3C[C@H]3C[C@H]5[C@@H](N(C)C)C(O)=C(C(N)=O)C(=O)[C@@]5(O)C(O)=C3C4=O)o2)CC1 [LN]	< 4	< 4
COc1ccc(CNC(C)C)cc1-c1ccc(O)c2c1C[C@H]1C[C@H]3[C@H](N(C)C)C(O)=C(C(N)=O)C(=O)[C@@]3(O)C(O)=C1C2=O [LR]	< 4	< 4
CCCCCC(=O)O[C@H]1[C@H]2C(=C(O)[C@]3(O)C(=O)C(C(N)=O)=C(O)[C@@H](N(C)C)[C@H]13)C(=O)c1c(O)cccc1[C@@H]2C [L]	< 4	> 4
CN(C)c1cc(CNC(=O)c2ccno2)c(O)c2c1C[C@H]1C[C@H]3C(N(C)C)C(O)=C(C(N)=O)C(=O)[C@@]3(O)C(O)=C1C2=O (some centres unmarked) [MB]	< 4	> 4
CN(C)[C@@H]1C(O)=C(C(N)=O)C(=O)[C@@]2(O)C(O)=C3C(=O)c4c(O)ccc(-c5ccc(CNC(C)(C)C)o5)c4C[C@H]3C[C@@H]12 [MD]	< 4	< 4
CN1CCN(Cc2ccc(-c3ccc(O)c4c3C[C@H]3C[C@H]5[C@H](N(C)C)C(O)=C(C(N)=O)C(=O)[C@@]5(O)C(O)=C3C4=O)cc2)CC1 [MF]	< 4	< 4
CN(C)c1cc(CNCC2CCCCC2)c(O)c2c1C[C@H]1C[C@H]3[C@H](N(C)C)C(O)=C(C(N)=O)C(=O)[C@@]3(O)C(O)=C1C2=O [MK]	< 4	< 4
